Source: the NIST ThermoML archive (doi:10.1016/j.jct.2005.05.008)

Experiment: an = ratio of the nth substance listed, in mol/kg
Conditions: 101 kPa, Liquid, Vibrating tube method

C[N+](C)(C)C.[O-][Cl+3]([O-])([O-])[O-] [tetramethylammonium perchlorate] + CN(C)C=O
mass density [kg/m3]
Conditions	a1 = 0.01523	a1 = 0.01902	a1 = 0.02912	a1 = 0.03309	a1 = 0.03853	a1 = 0.04774	a1 = 0.05313	a1 = 0.0674	a1 = 0.08195	a1 = 0.09648
283.15 K	958.937	959.151	959.718	959.941	960.244	960.757	961.055	961.841	962.642	963.443
293.15 K	949.438	949.656	950.233	950.46	950.768	951.288	951.59	952.388	953.2	954.007
298.15 K	944.682	944.901	945.481	945.71	946.019	946.545	946.848	947.652	948.469	949.284
303.15 K	939.914	940.135	940.72	940.951	941.262	941.792	942.097	942.907	943.731	944.551
313.15 K	930.347	930.572	931.168	931.402	931.719	932.257	932.568	933.392	934.229	935.06
323.15 K	920.732	920.962	921.569	921.807	922.13	922.676	922.995	923.831	924.679	925.524
333.15 K	911.066	911.299	911.916	912.157	912.486	913.042	913.365	914.216	915.082	915.939
